This note sets out measurements from patent US20230338463A1, “ICD PEPTIDE AND USE THEREOF FOR HAVING CYTOTOXIC ACTIVITY ON CANCER CELLS” (NATIONAL TSING HUA UNIVERSITY, priority 2022, published 2023).

For data set [1], the system named is A549 cells (adenocarcinomic alveolar basal epithelial cells). Conditions: A549, MTT, 24 hours. The source says: (§1) Three non-small cell lung cancer cell lines (H1975, A549, PC9) and two oral cancer cell lines (CGNHC9, OECM-1) were used in the present invention. H1975 is the non-small cell lung carcinoma tissue, A549 is the adenocarcinomic alveolar basal epithelial cells and PC9 is the non-small cell lung cancer with EGFR mutation. CGNHC9 and OECM-1 cell lines refer to oral squamous cell carcinoma and gingival epidermoid carcinoma respectively. The abovemetioned cell lines were derived from human origin and being cultured in the humidified incubator containing 5% CO2 at 37° C. CGNHC9 cell line was cultured in Dulbecco’s modified Eagle’s medium (GIBCO Life Technologies Corporation, NY, USA) with 10% fetal bovine serum (FBS), 2 mM L-glutamine and 1% penicillin/ streptomycin and Roswell Park Memorial Institute 1640 (RPMI 1640, GIBCO Life Technologies Corporation, NY, USA) medium with 10% fetal bovine serum (FBS), 2 mM L-glutamine and 1% penicillin/ streptomycin was used as the culture medium for the rest of the cell lines.
(§2) The anticancer activity of ICD peptides include, not limited, SEQ ID NO: 1 and its derivative peptides (SEQ ID NO: 2, SEQ ID NO: 3, SEQ ID NO: 4, and SEQ ID NO: 5) was using the 3-(4,5-Dimethyl-2-thiazolyl)-2,5-diphenyl-2H-tetrazolium bromide (MTT, Sigma Aldrich, St. Louis, MO, USA) colorimetric assay for cell viability test. The cells include, not limited, H1975, A549, PC9, CGNHC9, OECM-1, MN-11 and HFW cells/cell lines.
(§3) The cells were seeded in the 96-well plate at 5000 cells/well under the environment of humidified 5% CO2 and the temperature of 37° C. for 24 hours. The medium was removed from the well before the fresh medium containing different concentrations of ICD peptides was added and incubated for 24 hours. Medium with PBS solution was used as control group. All ICD peptides were diluted serially from 100 µM to 0.78 µM in ddH2O before adding in the medium. After 24 hours of ICD peptide treatment, fresh medium with 10% MTT solution (5 mg/mL) was incubated for additional 4 hours in advance of dissolving the formazan crystal in 100 µL DMSO (Dimethyl sulfoxide, Sigma Aldrich) solution. The calculation of cell survival rate was completed by measuring the absorbance at 570 nm using microplate reader (TECAN Sunrise ELISA Reader).
(§4) The cell survival was calculated from the treated cells relative to the control (100% viable cells) using the mean of three independent experiments and expressed as a 50% inhibitory concentration (IC50).
(§5) The percentage of cell viability was calculated using the following formula: […]
(§6) The half inhibition concentration (IC50) is the concentration required by the drug to reach fifty percent inhibition. In one embodiment, the SEQ ID NO: 1 and its derivative peptides (SEQ ID NO:2, SEQ ID NO:3, SEQ ID NO:4, SEQ ID NO: 5) was used for IC50 test via MTT colorimetric assay.

For data set [2], the system named is H1975 cells (non-small cell lung cancer). The note with it: 24 h.
Description: as §1, §2, §3, §4, §5, §6

Data set [3] relates to OECM-1 cells (gingival epidermoid carcinoma). Conditions: for cell viability percentage: human, 24 h.
Description: as §1, §2, §3, §4, §5, §6

Data set [4] concerns CGNHC9 cells (oral squamous cell carcinoma). Conditions: for cell viability percentage: human, 24 h.
Description: as §1, §2, §3, §4, §5, §6

For data set [5], the system named is MN-11 cells (murine fibrosarcoma). The data set is classed as cell-based. The source says: Medium with PBS solution was used as control group.
Besides, MTT assay was used to test the cell viability of the murine fibrosarcoma MN-11 cell line. Among the peptides, Dip-P-113 had the lowest cytotoxicity against MN-11 cells (FIG. 1F).

The next data set deals with MN-11 cell line. The class given is cell-based, murine. Conditions: 2 h. As for the experimental part:
Besides, evaluation of the killing kinetics of Nal-P-113, Bip-P-113 and Dip-P-113 for MN-11 was determined by MTT assay. Two-fold half 1inhibitory concentration (2 × IC50) was chosen for the experiments and the results were recorded at selected time points (30 mins, 1 hour, 2 hours and 4 hours). […] In 2 hours, the cell survival rate was near 50%.

In data set [6] the test system is PC9 cells (non-small cell lung cancer with EGFR mutation). Conditions: human, 24 h.
Description: as §1, §2, §3, §4, §5, §6

Non-standard residues stand in square brackets, D forms with d. Residues, ends and D or L forms follow the SMILES beside them. Bip = N[C@@H](Cc1ccc(-c2ccccc2)cc1)C(=O)O; Dip = N[C@H](C(=O)O)C(c1ccccc1)c1ccccc1

As for “Ac-AKRHHGYKRKFH-NH2 [SEQ ID NO: 1, Ac-AKR His His GYKRKF His-NH2]”, the IC50 – broadly, the point on the concentration scale where inhibition reaches its midpoint – was 107 µM in data set [1]; 110 µM in data set [2]; 141 µM in data set [3] (OECM-1, MTT, 24 hours); 84.3 µM in data set [4] (CGNHC9, MTT, 24 hours).
For the compound `CC(=O)N[C@@H](C)C(=O)N[C@@H](CCCCN)C(=O)N[C@@H](CCCNC(=N)N)C(=O)N[C@@H](Cc1ccc(-c2ccccc2)cc1)C(=O)N[C@@H](Cc1ccc(-c2ccccc2)cc1)C(=O)NCC(=O)N[C@@H](Cc1ccc(O)cc1)C(=O)N[C@@H](CCCCN)C(=O)N[C@@H](CCCNC(=N)N)C(=O)N[C@@H](CCCCN)C(=O)N[C@@H](Cc1ccccc1)C(=O)N[C@@H](Cc1ccc(-c2ccccc2)cc1)C(N)=O` [SEQ ID NO:4, Ac-AKR Bip Bip GYKRKF Bip-NH2] (Ac-AKR[Bip][Bip]GYKRKF[Bip]-NH2), 12.1 ± 0.47 µM corresponded to half-maximal inhibition in data set [5] (IC50). Besides, the cell survival rate in the data set with MN-11 cell line is reported as ~50%. In addition, the cell viability percentage result in data set [3], in data set [6] and in data set [4] was “lower than 20%” throughout.
In data set [2], “Ac-AKRFFGYKRKFF-NH2 [SEQ ID NO:2, Ac-AKR Phe Phe GYKRKF Phe-NH2]” registered an IC50 of 107 µM.
Regarding `CC(=O)N[C@@H](C)C(=O)N[C@@H](CCCCN)C(=O)N[C@@H](CCCNC(=N)N)C(=O)N[C@H](C(=O)N[C@H](C(=O)NCC(=O)N[C@@H](Cc1ccc(O)cc1)C(=O)N[C@@H](CCCCN)C(=O)N[C@@H](CCCNC(=N)N)C(=O)N[C@@H](CCCCN)C(=O)N[C@@H](Cc1ccccc1)C(=O)N[C@H](C(N)=O)C(c1ccccc1)c1ccccc1)C(c1ccccc1)c1ccccc1)C(c1ccccc1)c1ccccc1` [SEQ ID NO: 5, Ac-AKR Dip Dip GYKRKFDip-NH2] (Ac-AKR[Dip][Dip]GYKRKF[Dip]-NH2), the IC50 in data set [5] was determined as 59.8 ± 6.13 µM; in data set [2], 100 µM. For the same compound, the cell survival rate with MN-11 cell line is on record as ~50%. For the same compound, the cell viability percentage result in data set [3], in data set [6] and in data set [4] was “lower than 20%” throughout.
